The values that follow come from patent US5368707A, “Convenient determination of trace lead in whole blood and other fluids” (priority 1993, dated 1994).

The target in one test is T1, isocitrate dehydrogenase (Sus scrofa, UniProt P33198).
T1 construct: purchased Sigma, St. Louis, Mo; ICD Type VI
T1 sequence (P33198 9-421): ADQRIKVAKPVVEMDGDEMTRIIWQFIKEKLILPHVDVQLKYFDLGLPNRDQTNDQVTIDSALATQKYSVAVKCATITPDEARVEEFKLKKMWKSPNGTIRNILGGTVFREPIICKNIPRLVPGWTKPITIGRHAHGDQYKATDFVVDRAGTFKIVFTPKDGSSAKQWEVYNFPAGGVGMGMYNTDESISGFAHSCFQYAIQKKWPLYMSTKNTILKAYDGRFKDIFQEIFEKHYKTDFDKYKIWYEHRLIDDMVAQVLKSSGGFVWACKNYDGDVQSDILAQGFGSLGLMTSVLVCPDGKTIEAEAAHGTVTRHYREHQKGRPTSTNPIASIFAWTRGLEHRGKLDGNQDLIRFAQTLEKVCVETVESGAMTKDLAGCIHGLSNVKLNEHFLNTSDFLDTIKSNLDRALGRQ
Kind of test: Effect of complexing agents and other assay components on isocitrate dehydrogenase activity and its lead inhibition. It counts as biochemical, pig. An excerpt:
Any agent used for displacing lead from the EDTA complex must not interfere with the function or activity of the enzyme employed for detection. […] Other auxiliary complexing agents may also be useful, including iminodiacetate, citrate and lithium ion. Li^+1 is known to weaken lead ion binding to bovine serum albumin and is contemplated to be effective in displacing Pb^2+ from the complex.
To solve this problem, the inventors have employed strong chelating reagents to sequester lead ion from interfering blood proteins subsequent to release of the lead from the selected chelating reagent.

The next test relates to alcohol dehydrogenase. On the procedure: A bioelectrode was prepared from colloidal gold adsorbed alcohol dehydrogenase according the procedure of Example 2 for ICD. Measurements were made in the microcell as described in Example 1 using various concentrations of mercury.
Setting [1] is: colloidal gold/ADH bioelectrode.

Entries after “also recorded” stand apart in the source; their conditions may differ.

As to `O=C(O)[C@@H](S)[C@@H](S)C(=O)O` [DMSA, meso 2,3-dimercaptosuccinic acid], at isocitrate dehydrogenase, the “effect on ICDH activity / lead inhibition of ICDH” value is “do not interfere with electrochemical detection of lead by ICDH inhibition; also recorded: the activity, stability and lead inhibition are not adversely affected”. Take `O=C(O)CN(CCN(CC(=O)O)CC(=O)O)CC(=O)O` [EDTA]: at isocitrate dehydrogenase, the “effect on ICDH activity / lead inhibition of ICDH” value is “adversely affect lead ion inhibition of isocitric dehydrogenase”.

Regarding `[Mg+2]` [Mg^+2], the “effectiveness as cofactor of isocitric dehydrogenase” value at isocitrate dehydrogenase (compared with Mn2+, millimolar concentrations) is reported as “equally effective”. `C[n+]1c2ccccc2nc2ccccc21` [NMP-MS, N-methylphenazine methosulfate]: the “effect on ICDH activity / lead inhibition of ICDH” value on isocitrate dehydrogenase is recorded as “interfered with inhibition of the enzyme by added lead ion”. Still for that read-out and setting: the same measure for `CC(=O)O` [acetate]: “the activity, stability and lead inhibition are not adversely affected”. On the same count and under the same terms, the same measure for `c1ccc(-c2ccccc2)cc1` [biphenyl]: “do not interfere with electrochemical detection of lead by ICDH inhibition”. Still for that read-out and setting: the same measure for `c1ccc(-c2ccccn2)nc1` [dipyridyl]: “the activity, stability and lead inhibition are not adversely affected”; for `c1cnc2c(c1)ccc1cccnc12` [o-phenanthroline]: “do not interfere with electrochemical detection of lead by ICDH inhibition; also recorded: the activity, stability and lead inhibition are not adversely affected”. Turning to mercury ion, in the test on alcohol dehydrogenase (colloidal gold adsorbed ADH biosensor), the detection range result is listed as “nanomolar range”. Further, in the test with alcohol dehydrogenase (setting [1]), the amperometric response entry is recorded as “linear response in at nanomolar levels” and the reversibility of inhibition entry is given as “irreversible”. Also, the specificity of inhibition result in the test on alcohol dehydrogenase (in the presence of added lead ion) is listed as “specific for mercury in the presence of added lead ion”.
